What all share (assay): biochemical
Common to all, as to assay type: biochemical

Assay [1] concerns the target T1, 382 unique human kinases (Homo sapiens, UniProt P22607, K650E).
T1 construct: purchased Reaction Biology (HotSpot contract assay)
The conditions noted are these: FGFR3 (K650E), 10 uM; for remaining activity at 10 µM: read-out: % Enzyme Activity (relative to DMSO controls).

The target of assay [2] is T2, 382 unique human kinases (Homo sapiens, UniProt Q04771, R206H).
T2 construct: purchased Reaction Biology (HotSpot contract assay)
T2 sequence (Q04771 21-509 R206H): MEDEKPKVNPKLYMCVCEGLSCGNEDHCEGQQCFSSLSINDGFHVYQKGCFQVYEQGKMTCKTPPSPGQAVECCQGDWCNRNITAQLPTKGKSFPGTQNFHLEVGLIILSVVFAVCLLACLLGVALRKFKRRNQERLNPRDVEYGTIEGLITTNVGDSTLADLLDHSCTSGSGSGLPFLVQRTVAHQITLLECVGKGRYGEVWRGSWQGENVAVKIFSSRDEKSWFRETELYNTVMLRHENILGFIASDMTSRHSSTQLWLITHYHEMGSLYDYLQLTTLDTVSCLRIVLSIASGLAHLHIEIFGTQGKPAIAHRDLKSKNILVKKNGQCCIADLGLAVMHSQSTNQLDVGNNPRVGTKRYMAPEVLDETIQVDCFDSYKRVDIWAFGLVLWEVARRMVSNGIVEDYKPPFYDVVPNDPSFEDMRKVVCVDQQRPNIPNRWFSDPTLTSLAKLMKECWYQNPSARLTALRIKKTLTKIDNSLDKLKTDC
The conditions noted are these: ALK2 (R206H), compound at 10 uM, duplicate values; for remaining activity at 10 µM: read-out: % Enzyme Activity (relative to DMSO controls).

The target of assay [3] is T3, 382 unique human kinases (Homo sapiens, UniProt P08581, Y1230H).
T3 construct: purchased Reaction Biology (HotSpot contract assay)
To be noted: c-MET (Y1230H), 10 uM; for remaining activity at 10 µM: read-out: % Enzyme Activity (relative to DMSO controls).

In assay [4] the target is T4, 382 unique human kinases (Homo sapiens, UniProt P06213).
T4 construct: purchased Reaction Biology (HotSpot contract assay)
T4 sequence (P06213 28-1382): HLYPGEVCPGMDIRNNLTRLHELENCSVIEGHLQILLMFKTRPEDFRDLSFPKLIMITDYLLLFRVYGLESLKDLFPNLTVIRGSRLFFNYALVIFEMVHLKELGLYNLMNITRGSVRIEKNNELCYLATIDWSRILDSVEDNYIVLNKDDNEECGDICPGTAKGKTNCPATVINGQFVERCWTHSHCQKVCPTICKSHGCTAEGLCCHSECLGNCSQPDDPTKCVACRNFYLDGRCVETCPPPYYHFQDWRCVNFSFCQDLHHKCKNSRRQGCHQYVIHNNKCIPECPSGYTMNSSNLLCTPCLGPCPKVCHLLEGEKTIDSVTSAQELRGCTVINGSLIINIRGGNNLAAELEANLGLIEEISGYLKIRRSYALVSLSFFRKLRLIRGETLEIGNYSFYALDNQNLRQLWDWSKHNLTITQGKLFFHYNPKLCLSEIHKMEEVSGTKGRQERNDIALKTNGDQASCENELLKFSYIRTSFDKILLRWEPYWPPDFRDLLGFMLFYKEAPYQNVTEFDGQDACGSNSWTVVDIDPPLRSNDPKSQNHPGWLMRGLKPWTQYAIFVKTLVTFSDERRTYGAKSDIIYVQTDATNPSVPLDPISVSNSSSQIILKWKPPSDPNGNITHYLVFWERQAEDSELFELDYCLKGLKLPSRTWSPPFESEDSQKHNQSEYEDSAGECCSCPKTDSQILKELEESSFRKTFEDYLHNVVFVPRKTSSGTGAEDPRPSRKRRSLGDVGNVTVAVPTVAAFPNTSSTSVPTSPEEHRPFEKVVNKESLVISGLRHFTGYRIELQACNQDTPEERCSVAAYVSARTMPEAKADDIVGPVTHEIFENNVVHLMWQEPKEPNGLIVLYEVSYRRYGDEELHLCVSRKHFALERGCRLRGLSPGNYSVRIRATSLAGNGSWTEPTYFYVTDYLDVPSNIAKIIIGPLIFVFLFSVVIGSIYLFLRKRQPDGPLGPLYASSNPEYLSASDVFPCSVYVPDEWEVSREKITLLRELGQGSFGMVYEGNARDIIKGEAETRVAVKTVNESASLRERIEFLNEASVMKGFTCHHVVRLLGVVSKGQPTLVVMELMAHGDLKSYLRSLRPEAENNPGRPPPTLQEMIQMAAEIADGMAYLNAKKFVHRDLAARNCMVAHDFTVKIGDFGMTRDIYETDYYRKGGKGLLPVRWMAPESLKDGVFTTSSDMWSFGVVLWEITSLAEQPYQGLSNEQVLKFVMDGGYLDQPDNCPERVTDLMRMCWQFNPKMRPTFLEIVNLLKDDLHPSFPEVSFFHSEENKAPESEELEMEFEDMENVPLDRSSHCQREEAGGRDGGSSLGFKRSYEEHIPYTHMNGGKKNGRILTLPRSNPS
The conditions noted are these: kinase IR, compound 10 uM; for remaining activity at 10 µM: read-out: % Enzyme Activity (relative to DMSO controls).

Assay [5] deals with T5, 382 unique human kinases (Homo sapiens, UniProt O14757).
T5 construct: purchased Reaction Biology (HotSpot contract assay)
T5 sequence (O14757 1-476): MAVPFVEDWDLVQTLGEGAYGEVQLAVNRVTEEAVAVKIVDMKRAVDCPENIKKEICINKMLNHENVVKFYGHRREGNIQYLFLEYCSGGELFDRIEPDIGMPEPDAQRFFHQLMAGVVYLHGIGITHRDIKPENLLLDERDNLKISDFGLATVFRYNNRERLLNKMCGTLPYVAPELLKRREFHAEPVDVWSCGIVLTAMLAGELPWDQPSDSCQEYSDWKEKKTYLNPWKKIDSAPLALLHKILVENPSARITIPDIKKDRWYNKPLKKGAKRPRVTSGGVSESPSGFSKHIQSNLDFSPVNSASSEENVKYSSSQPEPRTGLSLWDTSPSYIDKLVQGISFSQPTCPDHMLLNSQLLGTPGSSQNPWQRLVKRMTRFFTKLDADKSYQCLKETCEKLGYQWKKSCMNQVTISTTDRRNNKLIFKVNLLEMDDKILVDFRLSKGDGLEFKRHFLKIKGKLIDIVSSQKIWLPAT
The conditions noted are these: CHK1, 10 uM; for remaining activity at 10 µM: read-out: % Enzyme Activity (relative to DMSO controls).

Assay [6] addresses T6, 382 unique human kinases (Homo sapiens, UniProt P51451).
T6 construct: purchased Reaction Biology (HotSpot contract assay)
To be noted: BLK, [ATP] 10 µM.

Assay [7] deals with T7, 382 unique human kinases (Homo sapiens, UniProt Q96KB5).
T7 construct: purchased Reaction Biology (HotSpot contract assay)
T7 sequence (Q96KB5 1-322): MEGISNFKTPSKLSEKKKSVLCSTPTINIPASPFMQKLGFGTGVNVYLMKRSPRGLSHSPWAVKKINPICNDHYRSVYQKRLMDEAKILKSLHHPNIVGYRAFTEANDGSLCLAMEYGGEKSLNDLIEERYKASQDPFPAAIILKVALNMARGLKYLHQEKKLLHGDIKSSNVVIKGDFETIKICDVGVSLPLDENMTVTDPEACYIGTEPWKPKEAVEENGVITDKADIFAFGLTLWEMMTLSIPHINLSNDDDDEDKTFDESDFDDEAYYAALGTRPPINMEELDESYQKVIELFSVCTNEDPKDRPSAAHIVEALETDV
The conditions noted are these: PBK/TOPK, 10 uM; for remaining activity at 10 µM: read-out: % Enzyme Activity (relative to DMSO controls).

The target in assay [8] is T8, 382 unique human kinases (Homo sapiens, UniProt P36888, D835Y).
T8 construct: purchased Reaction Biology (HotSpot contract assay)
T8 sequence (P36888 27-993 D835Y): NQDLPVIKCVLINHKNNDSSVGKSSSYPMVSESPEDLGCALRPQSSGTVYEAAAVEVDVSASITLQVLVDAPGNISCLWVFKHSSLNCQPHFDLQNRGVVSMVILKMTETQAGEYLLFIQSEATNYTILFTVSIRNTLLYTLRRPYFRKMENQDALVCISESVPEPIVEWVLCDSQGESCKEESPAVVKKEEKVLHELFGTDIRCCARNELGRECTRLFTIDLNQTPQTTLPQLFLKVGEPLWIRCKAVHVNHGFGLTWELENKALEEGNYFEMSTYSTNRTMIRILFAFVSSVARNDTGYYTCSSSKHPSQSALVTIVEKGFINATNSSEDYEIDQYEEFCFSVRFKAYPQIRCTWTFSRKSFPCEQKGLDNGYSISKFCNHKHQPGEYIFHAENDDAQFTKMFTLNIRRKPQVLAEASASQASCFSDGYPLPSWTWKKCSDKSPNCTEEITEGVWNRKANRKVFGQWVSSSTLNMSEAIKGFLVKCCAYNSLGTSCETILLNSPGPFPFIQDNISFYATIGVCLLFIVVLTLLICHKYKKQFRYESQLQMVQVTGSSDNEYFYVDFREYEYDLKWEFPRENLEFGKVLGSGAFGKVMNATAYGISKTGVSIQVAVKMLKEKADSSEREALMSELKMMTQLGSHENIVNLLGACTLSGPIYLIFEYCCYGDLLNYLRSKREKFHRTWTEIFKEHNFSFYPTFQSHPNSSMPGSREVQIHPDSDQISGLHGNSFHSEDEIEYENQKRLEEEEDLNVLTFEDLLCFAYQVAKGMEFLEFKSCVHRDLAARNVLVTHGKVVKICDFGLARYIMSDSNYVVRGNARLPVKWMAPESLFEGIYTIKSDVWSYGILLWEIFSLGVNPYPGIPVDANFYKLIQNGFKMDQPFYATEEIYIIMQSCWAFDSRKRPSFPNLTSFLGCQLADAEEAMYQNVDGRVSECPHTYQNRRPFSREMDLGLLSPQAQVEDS
The conditions noted are these: FLT3 (D835Y), [ATP] 20 µM, compound 10 uM; for remaining activity at 10 µM: read-out: % Enzyme Activity (relative to DMSO controls).

The target in assay [9] is T9, 382 unique human kinases (Homo sapiens, UniProt O94921).
T9 construct: purchased Reaction Biology (HotSpot contract assay)
T9 sequence (O94921 whole entry): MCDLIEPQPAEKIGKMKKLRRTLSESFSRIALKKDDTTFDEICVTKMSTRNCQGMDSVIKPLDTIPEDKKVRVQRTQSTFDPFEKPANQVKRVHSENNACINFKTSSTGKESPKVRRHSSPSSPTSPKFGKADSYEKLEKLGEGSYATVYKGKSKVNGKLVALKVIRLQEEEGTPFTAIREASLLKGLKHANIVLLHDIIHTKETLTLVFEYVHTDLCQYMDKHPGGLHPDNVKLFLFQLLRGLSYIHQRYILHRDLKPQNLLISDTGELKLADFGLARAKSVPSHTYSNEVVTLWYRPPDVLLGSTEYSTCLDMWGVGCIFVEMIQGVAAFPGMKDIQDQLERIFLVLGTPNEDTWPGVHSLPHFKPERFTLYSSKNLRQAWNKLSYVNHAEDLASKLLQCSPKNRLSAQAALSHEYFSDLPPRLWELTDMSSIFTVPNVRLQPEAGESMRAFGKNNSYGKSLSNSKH
To be noted: CDK14/cyclin Y (PFTK1), 10 uM; for remaining activity at 10 µM: read-out: % Enzyme Activity (relative to DMSO controls).

The mark [10] stands for this setting: compound 10 uM, read-out: % Enzyme Activity (relative to DMSO controls).

Data on four compounds can be found in paper PMC8550792, “Evolution of kinase polypharmacology across HSP90 drug discovery” (Cell Chemical Biology, 2021).

The structures appear in SMILES notation.

T1 sequence (P22607 23-806 K650E): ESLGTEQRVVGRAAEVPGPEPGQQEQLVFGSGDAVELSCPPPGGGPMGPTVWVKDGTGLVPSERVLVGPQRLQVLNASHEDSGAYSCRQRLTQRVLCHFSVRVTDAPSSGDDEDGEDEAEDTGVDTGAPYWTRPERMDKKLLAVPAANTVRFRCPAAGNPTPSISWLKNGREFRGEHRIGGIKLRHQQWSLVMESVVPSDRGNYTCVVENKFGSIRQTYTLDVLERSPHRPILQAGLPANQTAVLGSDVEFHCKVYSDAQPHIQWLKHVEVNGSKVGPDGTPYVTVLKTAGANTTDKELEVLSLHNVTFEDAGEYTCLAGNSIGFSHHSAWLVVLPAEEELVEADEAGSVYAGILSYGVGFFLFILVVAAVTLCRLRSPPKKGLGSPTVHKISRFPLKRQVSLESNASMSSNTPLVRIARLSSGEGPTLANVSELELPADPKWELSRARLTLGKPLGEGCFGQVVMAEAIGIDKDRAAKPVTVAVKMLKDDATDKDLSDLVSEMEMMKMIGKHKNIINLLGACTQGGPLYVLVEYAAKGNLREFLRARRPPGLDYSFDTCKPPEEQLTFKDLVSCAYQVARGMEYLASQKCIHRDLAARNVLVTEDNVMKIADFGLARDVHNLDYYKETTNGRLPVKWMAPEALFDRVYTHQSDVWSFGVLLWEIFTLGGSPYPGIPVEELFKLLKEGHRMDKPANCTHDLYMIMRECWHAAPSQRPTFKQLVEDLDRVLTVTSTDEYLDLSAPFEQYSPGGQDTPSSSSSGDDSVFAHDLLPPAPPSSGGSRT
T6 sequence (P51451 whole entry): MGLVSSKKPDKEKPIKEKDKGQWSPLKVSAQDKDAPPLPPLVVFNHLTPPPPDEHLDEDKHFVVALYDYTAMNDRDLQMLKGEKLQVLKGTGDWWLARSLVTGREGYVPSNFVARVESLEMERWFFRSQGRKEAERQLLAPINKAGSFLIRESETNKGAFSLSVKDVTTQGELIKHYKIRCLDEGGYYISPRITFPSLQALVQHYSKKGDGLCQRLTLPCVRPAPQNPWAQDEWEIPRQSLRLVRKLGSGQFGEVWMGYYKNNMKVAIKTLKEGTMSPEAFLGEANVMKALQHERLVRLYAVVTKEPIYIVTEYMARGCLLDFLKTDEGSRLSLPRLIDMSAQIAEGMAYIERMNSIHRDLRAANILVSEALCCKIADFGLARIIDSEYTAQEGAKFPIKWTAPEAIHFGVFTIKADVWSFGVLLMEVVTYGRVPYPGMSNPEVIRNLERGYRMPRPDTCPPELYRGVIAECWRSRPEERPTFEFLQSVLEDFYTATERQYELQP

In the case of `CC(C)c1cc(-c2n[nH]c(=O)n2-c2ccc3c(ccn3C)c2)c(O)cc1O` [Ganetespib (STA9090)], the remaining activity at 10 µM stood at 66.5% in assay [1]; 142% in assay [2]; 108% in assay [3]; 87% in assay [4]; 74.7% in assay [5].

Regarding `CC(C)c1cc(-c2n[nH]c(=O)n2-c2ccc3c(ccn3C)c2)c(O)cc1O` [Ganetespib], the remaining activity at 1 µM in assay [6] (compound 1 uM, read-out: % Enzyme Activity (relative to DMSO controls)) is 38.4%. Also, the remaining activity at 10 µM came out at 7.74% in [6] (setting [10]), 93.8% in assay [7], 18.6% in assay [8] and 93.1% in assay [9].

As to `CCNC(=O)c1noc(-c2cc(C(C)C)c(O)cc2O)c1-c1ccc(CN2CCOCC2)cc1` [Luminespib (AUY-922)], the “% Enzyme Activity (relative to DMSO controls)” value in assay [1] is on record as 98.78%; in [2], 113.96%; in [3], 78.17%; in [4] it was 96.77%; in assay [5], 105.20%. Further, the remaining activity at 10 µM stood at 101% in assay [1]; 114% in assay [2]; 79.7% in assay [3]; 96.8% in assay [4]; 106% in [5].

In the case of `CCNC(=O)c1noc(-c2cc(C(C)C)c(O)cc2O)c1-c1ccc(CN2CCOCC2)cc1` [Luminespib], the “% Enzyme Activity (relative to DMSO controls)” value in assay [6] (compound 10 uM) was determined as 36.97%; in assay [7], 96.61%; in [8], 78.51%; in assay [9], 102.69%. The remaining activity at 10 µM in assay [6] (setting [10]) was 38.1%; in assay [7], 98.3%; in assay [8], 78.6%; in [9], 103%.
